In PubChem BioAssay AID328 (DTP/NCI, 2004):
Where “and” joins values, the source holds several entries; their conditions need not be identical. Identical values can stand only once. Toxic doses and inconclusive results are not listed.

Test system: BDF1 mice, P388 leukemia ip, median survival T/C
Test: NCI In Vivo Anticancer Drug Screen. Data for tumor model P388 Leukemia (intraperitoneal) in B6D2F1 (BDF1) mice
Details: endpoint: median survival time, higher = longer survival
Summary of the method: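 Read-out is survival of treated animals expressed relative to the vehicle group, as a T/C ratio.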

[1] = dose: 50.0 mg/kg/injection, schedule: Q01DX009 (ip), vehicle: saline
[2] = dose: 100.0 mg/kg/injection, schedule: Q01DX009 (ip), vehicle: saline
[3] = dose: 100.0 mg/kg/injection, schedule: Q01DX009 (ip), vehicle: Klucel (hydroxypropylcellulose) (HPC)
[4] = dose: 100.0 mg/kg/injection, schedule: Q04DX003 (ip), vehicle: Klucel (hydroxypropylcellulose) (HPC)
[5] = dose: 200.0 mg/kg/injection, schedule: Q04DX003 (ip), vehicle: Klucel (hydroxypropylcellulose) (HPC)
[6] = dose: 50.0 mg/kg/injection, schedule: Q01DX009 (ip), vehicle: Klucel (hydroxypropylcellulose) (HPC)

In the case of `CCP(CC)c1ccccc1`, the T/C (dose: 100.0 mg/kg/injection, schedule: Q01DX009 (sc), vehicle: olive oil, sesame oil, peanut oil) is reported as 96 % of control, the T/C (dose: 100.0 mg/kg/injection, schedule: Q04DX003 (sc), vehicle: olive oil, sesame oil, peanut oil) is reported as 92 % of control and the T/C (dose: 200.0 mg/kg/injection, schedule: Q01DX009 (sc), vehicle: olive oil, sesame oil, peanut oil) is reported as 96 % of control. For the same compound, the T/C (dose: 200.0 mg/kg/injection, schedule: Q04DX003 (sc), vehicle: olive oil, sesame oil, peanut oil) was 100 % of control, the T/C (dose: 400.0 mg/kg/injection, schedule: Q01DX009 (sc), vehicle: olive oil, sesame oil, peanut oil) was 88 % of control and the T/C (dose: 400.0 mg/kg/injection, schedule: Q04DX003 (sc), vehicle: olive oil, sesame oil, peanut oil) was 92 % of control.
For `CCC(CO)N1CNC(=S)NC1` (centres undefined), the T/C [1] was 97 % of control, the T/C [2] was 92 % of control and the T/C (dose: 200.0 mg/kg/injection, schedule: Q01DX009 (ip), vehicle: saline) was 108 % of control.
`CCC[CH2][Hg][Cl]` was tested, and the T/C (dose: 6.25 mg/kg/injection, schedule: Q04DX003 (ip), vehicle: saline sonified) was 115 % of control, the T/C (dose: 11.0 mg/kg/injection, schedule: Q01DX009 (ip), vehicle: saline with Tween-80) was 100 % of control and the T/C (dose: 12.5 mg/kg/injection, schedule: Q01DX009 (ip), vehicle: saline with Tween-80) was 109 % of control. For the same compound, the T/C (dose: 12.5 mg/kg/injection, schedule: Q04DX003 (ip), vehicle: saline sonified) was 110 % of control, the T/C (dose: 16.5 mg/kg/injection, schedule: Q01DX009 (ip), vehicle: saline with Tween-80) was 150 % of control and the T/C (dose: 16.5 mg/kg/injection, schedule: Q04DX003 (ip), vehicle: saline sonified) was 113 % of control. For the same compound, the T/C (dose: 25.0 mg/kg/injection, schedule: Q04DX003 (ip), vehicle: saline sonified) was 104 % of control and the T/C (dose: 37.5 mg/kg/injection, schedule: Q04DX003 (ip), vehicle: saline sonified) was 118 % of control.
In the case of `CO[C@H]1CC=C2CCN3CCCc4cc5c(cc4[C@]23C1)OCO5`, the T/C (dose: 10.0 mg/kg/injection, schedule: Q01DX009 (ip), vehicle: alcohol) is reported as 100 % of control and the T/C (dose: 20.0 mg/kg/injection, schedule: Q01DX009 (ip), vehicle: alcohol) is reported as 100 % of control.
For `Nc1ccc(OCCCc2c(-c3ccccc3)nc(N)[nH]c2=O)cc1`, the T/C (dose: 25.0 mg/kg/injection, schedule: Q01DX009 (ip), vehicle: saline with Tween-80) was 100 % of control, the T/C (dose: 50.0 mg/kg/injection, schedule: Q01DX009 (ip), vehicle: saline with Tween-80) was 99 % of control and the T/C (dose: 100.0 mg/kg/injection, schedule: Q01DX009 (ip), vehicle: saline with Tween-80) was 108 % of control.
`CCCCCCCC(=O)Nc1c(C)cccc1C` was tested, and the T/C (dose: 100.0 mg/kg/injection, schedule: Q04DX003 (ip), vehicle: saline with Tween-80) was 100 % of control, the T/C (dose: 200.0 mg/kg/injection, schedule: Q04DX003 (ip), vehicle: saline with Tween-80) was 100 % of control and the T/C (dose: 400.0 mg/kg/injection, schedule: Q04DX003 (ip), vehicle: saline with Tween-80) was 95 % of control.
In the case of `Oc1ccc(Nc2ccnc3cc(Cl)ccc23)cc1CN(CCCl)CCCl`, the T/C (dose: 1.25 mg/kg/injection, schedule: Q01DX009 (ip), vehicle: saline) is reported as 177 % of control, the T/C (dose: 2.5 mg/kg/injection, schedule: Q01DX009 (ip), vehicle: saline) is reported as 194 % of control and the T/C (dose: 3.3 mg/kg/injection, schedule: Q04DX003 (ip), vehicle: saline) is reported as 163 % of control. For the same compound, the T/C (dose: 5.0 mg/kg/injection, schedule: Q01DX009 (ip), vehicle: saline) was 150 % of control, the T/C (dose: 5.0 mg/kg/injection, schedule: Q04DX003 (ip), vehicle: saline) was 163 % of control and the T/C (dose: 10.0 mg/kg/injection, schedule: Q04DX003 (ip), vehicle: saline with Tween-80) was 160 % of control.
For `O=C1CN(c2ccccc2)CC(=O)N2CCCN12`, the T/C (dose: 50.0 mg/kg/injection, schedule: Q01DX005 (ip), vehicle: saline with Tween-80) was 92 % of control and the T/C (dose: 200.0 mg/kg/injection, schedule: Q01DX005 (ip), vehicle: saline with Tween-80) was 88 % of control.
In the case of `CC1=CC(=O)N(O)CCCC(N)C(=O)OCCC(C)=CC(=O)N(O)CCCC(N)C(=O)OCCC(C)=CC(=O)N(O)CCCC(N)C(=O)OCC1` (centres undefined), the T/C (dose: 3.0 mg/kg/injection, schedule: Q01DX009 (ip), vehicle: Klucel (hydroxypropylcellulose) (HPC)) is reported as 89 % of control, the T/C (dose: 6.0 mg/kg/injection, schedule: Q01DX009 (ip), vehicle: Klucel (hydroxypropylcellulose) (HPC)) is reported as 87 % of control and the T/C (dose: 12.0 mg/kg/injection, schedule: Q01DX009 (ip), vehicle: Klucel (hydroxypropylcellulose) (HPC)) is reported as 87 % of control. For the same compound, the T/C (dose: 24.0 mg/kg/injection, schedule: Q01DX009 (ip), vehicle: Klucel (hydroxypropylcellulose) (HPC)) was 92 % of control.
`CC(=O)NCCCCCC(=O)O` was tested, and the T/C [3] was 90 % of control, the T/C [4] was 95 % of control and the T/C (dose: 200.0 mg/kg/injection, schedule: Q01DX009 (ip), vehicle: Klucel (hydroxypropylcellulose) (HPC)) was 90 % of control. The T/C [5] was 95 % of control, the T/C (dose: 400.0 mg/kg/injection, schedule: Q01DX009 (ip), vehicle: Klucel (hydroxypropylcellulose) (HPC)) was 109 % of control and the T/C (dose: 400.0 mg/kg/injection, schedule: Q04DX003 (ip), vehicle: Klucel (hydroxypropylcellulose) (HPC)) was 109 % of control.
For `O=[N+]([O-])c1cc([N+](=O)[O-])c(NN(c2ccc(Cl)cc2)c2ccc(Cl)cc2)c([N+](=O)[O-])c1`, the T/C [6] was 109 % of control, the T/C [3] was 113 % of control and the T/C [4] was 118 % of control. The T/C [5] was 118 % of control.
For `COc1cc(NC(=O)CC(C)=O)cc2c(C)cc(=O)[nH]c12`, the T/C (dose: 75.0 mg/kg/injection, schedule: Q04DX003 (ip), vehicle: Klucel (hydroxypropylcellulose) (HPC)) was 91 % of control, the T/C (dose: 150.0 mg/kg/injection, schedule: Q04DX003 (ip), vehicle: Klucel (hydroxypropylcellulose) (HPC)) was 100 % of control and the T/C (dose: 300.0 mg/kg/injection, schedule: Q04DX003 (ip), vehicle: Klucel (hydroxypropylcellulose) (HPC)) was 104 % of control.
`COC(=O)Nc1cccc(-c2nc3ccc(NC(=O)OC)cc3c(=O)n2-c2ccccc2)c1` was tested, and the T/C (dose: 6.25 mg/kg/injection, schedule: Q01DX009 (ip), vehicle: Klucel (hydroxypropylcellulose) (HPC)) was 108 % of control, the T/C (dose: 12.5 mg/kg/injection, schedule: Q01DX009 (ip), vehicle: Klucel (hydroxypropylcellulose) (HPC)) was 117 % of control and the T/C (dose: 25.0 mg/kg/injection, schedule: Q01DX009 (ip), vehicle: saline) was 150 % of control. The T/C (dose: 25.0 mg/kg/injection, schedule: Q01DX009 (oral), vehicle: Klucel (hydroxypropylcellulose) (HPC)) was 107 % of control, the T/C [6] was 213 % of control and the T/C [1] was 155 % of control. For the same compound, the T/C (dose: 50.0 mg/kg/injection, schedule: Q01DX009 (oral), vehicle: Klucel (hydroxypropylcellulose) (HPC)) was 109 % of control, the T/C [2] was 186 % of control and the T/C (dose: 100.0 mg/kg/injection, schedule: Q01DX009 (oral), vehicle: Klucel (hydroxypropylcellulose) (HPC)) was 109 % of control. The T/C (dose: 800.0 mg/kg/injection, schedule: Q01DX009 (oral), vehicle: Klucel (hydroxypropylcellulose) (HPC)) was 155 % of control.
In the case of `CCCCNP(=O)(N1CC1C)N1CC1C` (centres undefined), the T/C (dose: 33.0 mg/kg/injection, schedule: Q04DX003 (ip), vehicle: saline) is reported as 122 % of control, the T/C (dose: 50.0 mg/kg/injection, schedule: Q04DX003 (ip), vehicle: saline) is reported as 175 % of control and 181 % of control and the T/C (dose: 100.0 mg/kg/injection, schedule: Q04DX003 (ip), vehicle: saline) is reported as 90 % of control.
For `COC1CC=CC2=C1CCC1C2CC2C(=O)C1(C)CCC2O` (centres undefined), the T/C (dose: 100.0 mg/kg/injection, schedule: Q01DX001 (ip), vehicle: other) was 105 % of control, the T/C (dose: 200.0 mg/kg/injection, schedule: Q01DX001 (ip), vehicle: other) was 100 % of control and the T/C (dose: 400.0 mg/kg/injection, schedule: Q01DX001 (ip), vehicle: other) was 100 % of control.
For `CCN(CC)CCOC(=O)CSC1C2CC3C(C2)C31` (centres undefined), the T/C (dose: 50.0 mg/kg/injection, schedule: Q01DX009 (ip), vehicle: suspension in saline) was 106 % of control, the T/C (dose: 100.0 mg/kg/injection, schedule: Q01DX001 (ip), vehicle: suspension in saline) was 93 % of control and the T/C (dose: 100.0 mg/kg/injection, schedule: Q01DX009 (ip), vehicle: suspension in saline) was 107 % of control. The T/C (dose: 200.0 mg/kg/injection, schedule: Q01DX001 (ip), vehicle: suspension in saline) was 101 % of control, the T/C (dose: 200.0 mg/kg/injection, schedule: Q01DX009 (ip), vehicle: suspension in saline) was 109 % of control and the T/C (dose: 400.0 mg/kg/injection, schedule: Q01DX001 (ip), vehicle: suspension in saline) was 102 % of control. The T/C (dose: 400.0 mg/kg/injection, schedule: Q01DX009 (ip), vehicle: suspension in saline) was 111 % of control and the T/C (dose: 600.0 mg/kg/injection, schedule: Q01DX001 (ip), vehicle: suspension in saline) was 105 % of control.
